Measurements taken from PMC11579541, “In vitro, in vivo, and in silico approaches for evaluating the preclinical DMPK profiles of ammoxetine, a novel chiral serotonin and norepinephrine reuptake inhibitor” (Frontiers in Pharmacology, 2024).
Read-outs that look alike come from different tables or passages of the source.

Key:
[1] = Configurational stability study (in vivo chiral inversion); set-up: species or system SD rats; conditions: rat plasma 2 h after 50 mg/kg oral, chiral HPLC
Method: Twelve SD rats were divided into three groups: a blank control group, an S-071031B group (50 mg/kg), and an R-071031B group (50 mg/kg). Prior to administration, the animals underwent a 12-h fasting period while having access to water. At 2 h post-dosing, the rats were anesthetized, and blood samples were collected from the abdominal aorta into heparinized tubes. Plasma samples were obtained by centrifuging the collected blood at 2,000×g for 10 min to remove blood cells. Subsequently, 1 mL of plasma sample was mixed with 100 μL of 0.1% sodium hydroxide solution and 4 mL of ether. After centrifugation at 2,000×g for 10 min, the upper organic phase within each group was combined, transferred to a new tube, and dried under a stream of nitrogen. The resulting residues were reconstituted with 100 μL of methanol for subsequent HPLC analysis.
A chiral chromatographic column was employed to separate the enantiomers, and the RT of X-071031B (racemic 071031B) and S-071031B (ammoxetine) standards were determined for identification. Plasma samples were collected from rats 2 h after oral administration of 50 mg/kg of S-071031B or R-071031B. The presence of a chromatographic peak at the RT corresponding to the opposite enantiomer following the administration of the S-isomer would indicate the conversion of the S-isomer to the R-isomer in rats. […]

[2] = Tissue distribution study in rats; type: in vivo; conditions: 20 mg/kg oral; for Tmax: read-out: time of peak concentration in tissue; for Kp: po, 20 mg/kg, read-out: AUC(0→t),tissue/AUC(0→t),blood
Method: A total of 24 rats were divided equally into four groups, with each group receiving a single oral gavage dose of 20 mg/kg of ammoxetine. Based on the rat PK analysis results for the 20 mg/kg dose, specific time points were selected for sampling, including before, at, and after the peak of ammoxetine plasma concentration (i.e., 0.25, 2, 6, and 24 h, respectively). At each designated time point after drug administration, the rats were euthanized, and approximately 1 mL of blood samples were collected into heparinized tubes. The heart, liver, spleen, lung, kidney, brain, intestine, stomach, testis, fat, and muscle tissues were rapidly removed after washing out the blood with ice-cold saline. The blood samples were then centrifuged at 6,000 r/min for 15 min to obtain plasma. The collected tissue samples were weighed and homogenized in distilled water to create a 10% homogenate. For further analysis, 100 μL of plasma or tissue homogenate samples were mixed with 300 μL of methanol and 100 μL of L-phencynonate (IS, 50 ng/mL). The mixture was vortexed for 1 min and then centrifuged at 13,800×g for 10 min. The resulting supernatants were used for LC-MS-MS analysis. Using the trapezoidal method, the tissue-to-blood AUC ratio ( AUC0→t,tissue/AUC0→t,blood ) was calculated based on the obtained AUC values. This ratio allowed for the comparison of differential tissue distribution of ammoxetine in rats.

[3] = Stability of ammoxetine in rat plasma (method validation); type: in vitro ADME
Method: LC-MS-MS methods were developed and validated to accurately quantify ammoxetine in rat and beagle dog plasma, as well as in rat tissues, urine, feces, and bile. The methods involved direct protein precipitation using methanol, providing a straightforward and rapid sample preparation process with high extraction recovery rates (absolute recoveries >85% in all matrices). […] The precision and accuracy of the plasma methods were evaluated through intra-day and inter-day analyses, yielding satisfactory results. Additionally, stability tests conducted in rat and beagle dog plasma met the analytical requirements for determination. Furthermore, the majority of the analytes met the necessary criteria for matrix effects when quantifying ammoxetine in biological samples. The developed methods are well-suited for determining ammoxetine concentrations in rat and beagle dog biological samples, enabling in vivo studies of this compound. They provide specific and highly sensitive quantification, facilitating investigations into the drug’s behavior in vivo. Detailed results regarding the establishment and validation of these analytical methods can be found in Supplementary Data Sheet 2.

[4] = set-up: method as in Xue et al., 2017; conditions: citric acid/phosphate buffer (pH 2); ref Xue et al., 2017; cited from earlier work

Compound: CNCC[C@H](Oc1cccc2c1OCO2)c1cccs1 [ammoxetine]
- chiral inversion in vivo [1]: does not undergo conversion to R-071031B
- Plasma exposure as share of total systemic exposure (AUC0→t,blood/AUC0→t,total) [2]: approximately 0.186%
- AUC(0→t) ([2]; brain): 60,541.26 ± 19,438.07 ng/g·h
- AUC(0→t) ([2]; fat): 38,592.32 ± 24,498.69 ng/g·h
- AUC(0→t) ([2]; heart): 44,743.11 ± 11,086.06 ng/g·h
- AUC(0→t) ([2]; intestine): 190,710.5 ± 52,982.23 ng/g·h
- AUC(0→t) ([2]; kidney): 98,000.01 ± 25,400.16 ng/g·h
- AUC(0→t) ([2]; liver): 208,081.20 ± 64,872.68 ng/g·h
- AUC(0→t) ([2]; lung): 393,670.80 ± 31,407.40 ng/g·h
- AUC(0→t) ([2]; muscle): 24,154.50 ± 6,583.59 ng/g·h
- AUC(0→t) ([2]; spleen): 117,673.30 ± 31,479.36 ng/g·h
- AUC(0→t) ([2]; stomach): 118,279.40 ± 37,565.21 ng/g·h
- AUC(0→t) ([2]; testis): 69,347.84 ± 13,459.91 ng/g·h
- Tmax ([2]; rat, heart, spleen, lung, kidney, brain, fat and muscle): 2 h
- Tmax ([2]; rat, testis): 6 h
- Kp ([2]; rat, brain, brain): ~23.3
- Kp ([2]; rat, fat, fat): 14.2 ± 7.84
- Kp ([2]; rat, heart, heart): 17.1 ± 3.3
- Kp ([2]; rat, intestine, intestine): 75.6 ± 28.2
- Kp ([2]; rat, kidney, kidney): 37.7 ± 8.18
- Kp ([2]; rat, liver, liver): 81.4 ± 26.8
- Kp ([2]; rat, lung, lung): 155 ± 34.7
- Kp ([2]; rat, muscle, muscle): 9.31 ± 2.29
- AUC(0-t) ([2]; rat, plasma, blood): 2620 ng·h/mL
- Kp ([2]; rat, spleen, spleen): 46 ± 14.2
- Kp ([2]; rat, stomach, stomach): 48.8 ± 27.6
- Kp ([2]; rat, testis, testis): 27.3 ± 8.12
- Stability in rat plasma, Measured (%) ([3]; 5 ng/mL, -30℃ for 15d): 106.00±2.00%
- Stability in rat plasma, Measured (%) ([3]; 5 ng/mL, in auto-sampler for 24h): 114.00±10.00%
- Stability in rat plasma, Measured (%) ([3]; 5 ng/mL, room temperature for 4h): 94.00±6.00%
- Stability in rat plasma, Measured (%) ([3]; 100 ng/mL, -30℃ for 15d): 105.90±8.30%
- Stability in rat plasma, Measured (%) ([3]; 100 ng/mL, in auto-sampler for 24h): 111.20±5.90%
- Stability in rat plasma, Measured (%) ([3]; 100 ng/mL, room temperature for 4h): 108.90±7.40%
- Stability in rat plasma, Measured (%) ([3]; 800 ng/mL, -30℃ for 15d): 111.74±2.73%
- Stability in rat plasma, Measured (%) ([3]; 800 ng/mL, in auto-sampler for 24h): 106.49±0.78%
- Stability in rat plasma, Measured (%) ([3]; 800 ng/mL, room temperature for 4h): 114.33±0.73%
- stability in buffer [4]: instability
